Reference: patent publication US12268694B2, “Combination pharmaceutical agents as RSV inhibitors” (Enanta Pharmaceuticals, Inc., priority 2017, dated 2025)

Key:
HEp-2 cells = experiment: Cytotoxicity in parallel to the RSV-A assay (no virus), ATPlite readout; type: cell-based, human
Protocol: Following extensive parameter testing, the final assay is run as follows: HEp-2 cells are seeded into the inner 60 wells of a 96-well plate at 8,000 cells per well in a volume of 50 μL using Growth Media (DMEM without phenol red, 1% L-Glut, 1% Penn/Strep, 1% nonessential amino acids, 10% heat-inactivated FBS). 2-fold serial dilutions of control and test compounds are added to the wells in duplicate in a total volume of 25 μL. Viral stock is then added to the wells at a multiplicity of infection (MOI) of 0.1 in a volume of 25 μL, bringing the total volume of each well to 100 μL. The MOI is calculated using the PFU/mL, or TCID50 if unavailable. Each 96-well plate has a control column of 6 wells with cells and virus but no compound (negative control, max CPE), a column with cells but no compound or virus (positive control, minimum CPE), and a column with no cells or virus or compound (background plate/reagent control). The control wells with cells but no virus are given an additional 25 μL of growth media containing an equal quantity of sucrose as those wells receiving the viral stock in order to keep consistent in media and volume conditions. The outer wells of the plate are filled with 125 μL of moat media (DMEM, 1% Penn/Strep) to act as a thermal and evaporative moat around the test wells. Following a 5-day incubation period, the plates are read using ATPlite (50 μL added per well), which quantifies the amount of ATP (a measure of cell health) present in each well. Assay plates are read using the Envision luminometer. In parallel, cytotoxicity is examined on an additional 96-well plate treated in an identical manner, but substituting the 25 μL of viral stock for 25 μL of growth media. […] EC50 ranges are as follows: A <0.4 μM; B 0.4-0.8 μM; C >0.8 μM and CC50 ranges are as follows: A >50 μM; B 10-50 μM; C <10 μM.

[1] = test system: genotype A, "Long" strain RSV; experiment: RSV-A assay: CPE protection in HEp-2 cells, ATPlite readout; type: cell-based, human respiratory syncytial virus; settings: human respiratory syncytial virus, HEp-2, read-out: Human RSV-A (“Long” strain) EC50
Method in brief: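 EC50 derives from ATPlite luminescence after 5-day culture of RSV Long-infected (MOI 0.1) HEp-2 cells, seeded 8,000/well, exposed to duplicate 2-fold compound series. CC50 comes from an identical plate receiving medium instead of virus.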

| Compound | CC50 (HEp-2 cells) [µM] | EC50 [1] [nM] |
| --- | --- | --- |
| Cc1ccc(-c2nnc(NC3N=C(c4ccccc4)c4ccccc4NC3=O)o2)s1 (stereo not drawn) [Example 19] | > 50 | > 800 |
| O=C1Nc2ccccc2C(c2ccccc2)=NC1Nc1nnc(-c2ccc(Cl)o2)o1 (stereo not drawn) [Example 20] | > 50 | > 800 |
| O=C1Nc2ccccc2C(c2ccccc2)=NC1Nc1nnc(C2CCOCC2)o1 (stereo not drawn) [Example 21] | > 50 | > 800 |
| O=C1Nc2ccccc2C(c2ccccc2)=NC1Nc1nnc(Cc2ccccc2)o1 (stereo not drawn) [Example 22] | > 50 | > 800 |
| O=C1Nc2ccccc2C(c2ccccc2)=NC1Nc1nnc(-c2ccc(F)cn2)o1 (stereo not drawn) [Example 23] | > 50 | > 800 |
| O=C1Nc2ccccc2C(c2ccccc2)=NC1Nc1nnc(-c2ccc(C(F)(F)F)cn2)o1 (stereo not drawn) [Example 25] | > 50 | > 800 |
| Cc1cccc(-c2nnc(NC3N=C(c4ccccc4)c4ccccc4NC3=O)o2)n1 (stereo not drawn) [Example 26] | > 50 | > 800 |
| CS(=O)(=O)c1ccc(-c2nnc(NC3N=C(c4ccccc4)c4ccccc4NC3=O)o2)cc1 (stereo not drawn) [Example 27] | > 50 | > 800 |
| O=C1Nc2ccccc2C(c2ccccc2)=NC1Nc1nnc(-c2ccc(C(F)(F)F)cc2)o1 (stereo not drawn) [Example 28] | > 50 | > 800 |
| O=C1Nc2ccccc2C(c2ccccc2)=NC1Nc1nnc(-c2cccc(C(F)(F)F)c2)o1 (stereo not drawn) [Example 29] | > 50 | > 800 |
| O=C1Nc2ccccc2C(c2ccccc2)=NC1Nc1nnc(-c2ccc(OC(F)(F)F)cc2)o1 (stereo not drawn) [Example 30] | > 50 | > 800 |
| NS(=O)(=O)c1ccc(-c2nnc(NC3N=C(c4ccccc4)c4ccccc4NC3=O)o2)cc1 (stereo not drawn) [Example 31] | > 50 | 400 to 800 |
| N#Cc1cc(-c2nnc(NC3N=C(c4ccccc4)c4ccccc4NC3=O)o2)ccc1F (stereo not drawn) [Example 32] | > 50 | 400 to 800 |
| N#Cc1ccc(-c2nnc(NC3N=C(c4ccccc4)c4ccccc4NC3=O)o2)cc1F (stereo not drawn) [Example 33] | > 50 | > 800 |
| Cc1cc(-c2nnc(NC3N=C(c4ccccc4)c4ccccc4NC3=O)o2)ccc1C#N (stereo not drawn) [Example 34] | > 50 | 400 to 800 |
| N#Cc1cccc(-c2nnc(NC3N=C(c4ccccc4)c4ccccc4NC3=O)o2)c1 (stereo not drawn) [Example 35] | > 50 | > 800 |
| O=C1Nc2ccccc2C(c2ccccc2)=NC1Nc1nnc(-c2ccc(-n3cccn3)cc2)o1 (stereo not drawn) [Example 36] | 10 to 50 | 400 to 800 |
| O=C1Nc2ccccc2C(c2ccccc2)=NC1Nc1nnc(-c2cccnc2)o1 (stereo not drawn) [Example 37] | > 50 | > 800 |
| N#Cc1cc(-c2nnc(NC3N=C(c4ccccc4)c4ccccc4NC3=O)o2)ccn1 (stereo not drawn) [Example 38] | > 50 | > 800 |
| O=C1Nc2ccccc2C(c2ccccc2)=NC1Nc1nnc(-c2ccc(=O)[nH]c2)o1 (stereo not drawn) [Example 39] | > 50 | > 800 |

| Compound | CC50 (HEp-2 cells) [µM] | EC50 [1] [nM] |
| --- | --- | --- |
| O=C1Nc2ccccc2C(c2ccccc2)=NC1Nc1nnc(-c2ccc3nc[nH]c3c2)o1 (stereo not drawn) [Example 41] | > 50 | > 800 |
| O=C1Nc2ccccc2C(c2ccccc2)=NC1Nc1nnc(-c2cc3cccnc3s2)o1 (stereo not drawn) [Example 43] | > 50 | > 800 |
| CN1CCc2nc(-c3nnc(NC4N=C(c5ccccc5)c5ccccc5NC4=O)o3)sc2C1 (stereo not drawn) [Example 44] | > 50 | > 800 |
| O=C1Nc2ccccc2C(c2ccccc2)=NC1Nc1nnc(C2CCNCC2)o1 (stereo not drawn) [Example 45] | > 50 | > 800 |
| CN1CCC(c2nnc(NC3N=C(c4ccccc4)c4ccccc4NC3=O)o2)CC1 (stereo not drawn) [Example 46] | > 50 | > 800 |
| CC(=O)N1CCC(c2nnc(NC3N=C(c4ccccc4)c4ccccc4NC3=O)o2)CC1 (stereo not drawn) [Example 47] | > 50 | > 800 |
| O=C1Nc2ccccc2C(c2ccccc2)=NC1Nc1nnc([C@@H]2COCCN2)o1 (stereo partly drawn) [Example 48] | > 50 | > 800 |
| O=C1Nc2ccccc2C(c2ccccc2)=NC1Nc1nnc([C@H]2COCCN2)o1 (stereo partly drawn) [Example 49] | > 50 | > 800 |
| O=C1Nc2ccccc2C(c2ccccc2)=NC1Nc1nnc(-c2ccc(F)cc2F)o1 (stereo not drawn) [Example 50] | > 50 | > 800 |
| COc1ccc(-c2nnc(NC3N=C(c4ccccc4)c4ccccc4NC3=O)o2)nc1 (stereo not drawn) [Example 51] | > 50 | 400 to 800 |
| COc1cccc(-c2nnc(NC3N=C(c4ccccc4)c4ccccc4NC3=O)o2)n1 (stereo not drawn) [Example 52] | > 50 | < 400 |
| O=C1Nc2ccccc2C(c2ccccc2)=NC1Nc1nnc(-c2ccc(F)nc2)o1 (stereo not drawn) [Example 53] | > 50 | 400 to 800 |
| COc1ccc(-c2nnc(NC3N=C(c4ccccc4)c4ccccc4NC3=O)o2)cn1 (stereo not drawn) [Example 54] | > 50 | < 400 |
| O=C1Nc2ccccc2C(c2ccccc2)=NC1Nc1nnc(-c2ccnc(F)c2)o1 (stereo not drawn) [Example 55] | > 50 | < 400 |
| COc1ccnc(-c2nnc(NC3N=C(c4ccccc4)c4ccccc4NC3=O)o2)c1 (stereo not drawn) [Example 57] | > 50 | > 800 |
| O=C1Nc2ccccc2C(c2ccccc2)=NC1Nc1nnc(-c2cnccn2)o1 (stereo not drawn) [Example 58] | > 50 | > 800 |
| O=C1Nc2ccccc2C(c2ccccc2)=NC1Nc1nnc(-c2ncccn2)o1 (stereo not drawn) [Example 59] | > 50 | > 800 |
| O=C1Nc2ccccc2C(c2ccccc2)=NC1Nc1nnc(-c2cncnc2)o1 (stereo not drawn) [Example 60] | > 50 | > 800 |
| O=C1Nc2ccccc2C(c2ccccc2)=NC1Nc1nnc(-c2ccncc2)o1 (stereo not drawn) [Example 61] | > 50 | 400 to 800 |
| O=C1Nc2ccccc2C(c2ccccc2)=NC1Nc1nnc(-c2cccnn2)o1 (stereo not drawn) [Example 62] | > 50 | > 800 |

| Compound | CC50 (HEp-2 cells) [µM] | EC50 [1] [nM] |
| --- | --- | --- |
| O=C1Nc2ccccc2C(c2ccccc2)=NC1Nc1nnc(-c2ccncn2)o1 (stereo not drawn) [Example 63] | > 50 | > 800 |
| COCc1cccc(-c2nnc(NC3N=C(c4ccccc4)c4ccccc4NC3=O)o2)n1 (stereo not drawn) [Example 64] | > 50 | > 800 |
| Cn1nccc1-c1nnc(NC2N=C(c3ccccc3)c3ccccc3NC2=O)o1 (stereo not drawn) [Example 65] | > 50 | > 800 |
| Cn1cc(-c2nnc(NC3N=C(c4ccccc4)c4ccccc4NC3=O)o2)cn1 (stereo not drawn) [Example 66] | > 50 | 400 to 800 |
| Cn1ccnc1-c1nnc(NC2N=C(c3ccccc3)c3ccccc3NC2=O)o1 (stereo not drawn) [Example 67] | > 50 | > 800 |
| Cn1cnc(-c2nnc(NC3N=C(c4ccccc4)c4ccccc4NC3=O)o2)c1 (stereo not drawn) [Example 68] | > 50 | > 800 |
| O=C1Nc2ccccc2C(c2ccccc2)=NC1Nc1nnc(-c2nccs2)o1 (stereo not drawn) [Example 69] | > 50 | > 800 |
| O=C1Nc2ccccc2C(c2ccccc2)=NC1Nc1nnc(-c2ncco2)o1 (stereo not drawn) [Example 70] | > 50 | > 800 |
| Cc1ccc(-c2nnc(NC3N=C(c4ccccc4)c4ccccc4NC3=O)o2)o1 (stereo not drawn) [Example 71] | > 50 | > 800 |
| COCc1ccc(-c2nnc(NC3N=C(c4ccccc4)c4ccccc4NC3=O)o2)o1 (stereo not drawn) [Example 72] | > 50 | > 800 |
| CN(C)Cc1ccc(-c2nnc(NC3N=C(c4ccccc4)c4ccccc4NC3=O)o2)o1 (stereo not drawn) [Example 73] | > 50 | > 800 |
| Cc1cc(-c2nnc(NC3N=C(c4ccccc4)c4ccccc4NC3=O)o2)on1 (stereo not drawn) [Example 74] | > 50 | > 800 |
| O=C1Nc2ccccc2C(c2ccccc2)=NC1Nc1nnc(-c2cnco2)o1 (stereo not drawn) [Example 75] | > 50 | > 800 |
| O=C1Nc2ccccc2C(c2ccccc2)=NC1Nc1nnc(-c2cncs2)o1 (stereo not drawn) [Example 76] | > 50 | > 800 |
| O=C1Nc2ccccc2C(c2ccccc2)=NC1Nc1nnc(-c2cscn2)o1 (stereo not drawn) [Example 77] | > 50 | 400 to 800 |
| O=C1Nc2ccccc2C(c2ccccc2)=NC1Nc1nnco1 (stereo not drawn) [Example 79] | > 50 | > 800 |
| O=C1Nc2ccccc2C(c2ccccc2)=NC1Nc1nnc(-c2ccc(F)cc2)s1 (stereo not drawn) [Example 80] | > 50 | > 800 |
| O=C1Nc2ccccc2C(c2ccccc2)=NC1Nc1nnc(-c2ccccc2)s1 (stereo not drawn) [Example 81] | > 50 | > 800 |
| N#Cc1ccc(-c2nnc(NC3N=C(c4ccccc4)c4ccccc4NC3=O)s2)cc1 (stereo not drawn) [Example 82] | > 50 | 400 to 800 |
| O=C1Nc2ccccc2C(c2ccccc2)=NC1Nc1nnc(-c2ccncc2)s1 (stereo not drawn) [Example 83] | > 50 | > 800 |
